What was measured:
Format in all cases: in vivo, C57BL/6 mice
[1] = test system: B16F10 lung metastases; assay: B16F10 lung metastases after intratumoral treatment of the subcutaneous tumor; conditions: 20 μg intratumoral
Source text: Activation of the STING pathway promotes antigen presentation and induces a durable T-cell response, as shown in Examples 11 and 12. Thus, the immune memory response induced by EXOSTING™ may be sufficient to prevent tumor metastasis after a local administration in a primary tumor. To test this hypothesis, exosomes purified from HEK293SF cells overexpressing PTGFRN were loaded with the cyclic dinucleotide 3-3 cAIMPdFSH as described in Example 1. C57BL/6 mice were inoculated subcutaneously with 1×10^6 B16F10 melanoma cells on day zero and challenged with an additional tail vein injection of 1×10^5 B16F10 melanoma cells to seed lung metastases (n=8 mice per group). Five, eight, and eleven days post-inoculation the mice were injected intratumorally at the subcutaneous tumor with PBS, 20 μg 3-3 cAIMPdFSH, 120 ng 3-3 cAIMPdFSH, or either 120 ng, 12 ng, or 1.2 ng 3-3 cAIMPdFSH loaded in PTGFRN-overexpressing exosomes (Exo STING Agonist). […] Lungs from all mice were harvested, imaged, and counted for metastases. […] As little as 12 ng of Exo STING Agonist prevented lung metastasis to the same extent as 20 μg STING Agonist (FIGS. 46B and 47).

[2] = test system: B16F10 murine melanoma cells; assay: Dual flank B16F10 model, injected and contralateral tumors
Source text: In addition, activation of the STING pathway induces the upregulation of immune pathway checkpoints, which subsequently reduce T-cell-mediated cell killing, and thus moderate the effects of STING pathway agonism as a therapeutic rationale (Cell Rep. 2015 May 19; 11(7):1018-30). To test both hypotheses, C57BL/6 mice were inoculated subcutaneously with 1×10^6 and 5×10^5 B16F10 murine melanoma cells into right and left flank of mice, respectively (n=5 mice per group). Seven, ten, and thirteen days post-inoculation, the tumor at right flank were injected intratumorally with exosomes, 20 μg of free 3-3 cAIMPdFSH, 0.1 μg of free 3-3 cAIMPdFSH, or 0.1 μg 3-3 cAIMPdFSH loaded in PTGFRN-overexpressing exosomes, with a control antibody (α-IgG; 10 mg/kg; BioLegend, Catalog #400559, Clone RTK3758) or an antagonistic antibody against PD-1 (a PD-1; 10 mg/kg; BioLegend, Catalog #114111, Clone RMPI-14). Antibodies were injected intraperitoneally. Tumor volumes were measured daily until day 21, and animals were sacrificed when tumor volume reached 2000 mm^3.

[3] = test system: STING pathway; assay: STING pathway activation after intraperitoneal or intratumoral dose in B16F10 tumor-bearing mice; conditions: 20 μg single IP dose
Method: Five groups of C57BL/6 mice (n=4 mice per group) were inoculated subcutaneously with 5×10^5 B16F10 murine melanoma cells. Eight days post-inoculation the mice were injected intraperitoneally (IP) with a single dose of either PBS, 20 μg ML RR-S2, 0.2 μg ML RR-S2, 0.2 μg ML RR-S2 loaded in PTGFRN-overexpressing exosomes (Exo STING IP), or intratumorally (IT) with a single dose of 0.2 μg ML RR-S2 loaded in PTGFRN-overexpressing exosomes (Exo STING IT). The exosome-encapsulated STING agonist formulations were loaded and quantitated as described in Example 1.

Row | Structure (SMILES) | lung lesions by histology [1] | lung metastases compared to PBS [1] | injected tumor growth ([2]; 0.1 μg free + IgG or Anti-PD1) | contralateral (not injected) tumor ([2]; 20 μg free) | contralateral tumor reduction with anti-PD1 ([2]; 20 μg free + anti-PD-1 10 mg/kg IP) | injected tumor growth ([2]; 20 μg free, regardless of anti-PD1) | IFNβ expression in tumor, pancreas and spleen [3]
1 | Nc1ncnc2c1ncn2[C@@H]1O[C@@H]2COP(=O)(S)O[C@H]3[C@@H](F)[C@H](n4cnc5c(=O)[nH]cnc54)O[C@@H]3COP(O)(=S)O[C@H]2[C@H]1F (stereo partly shown) [3-3 cAIMPdFSH, 3′3′-cAIMPdFSH] | significant amount of lung lesions inside of lung | dramatically reduced | moderately potentiated | significant tumor reduction | more strengthened with anti-PD1 combination | Almost completely eliminated | –
2 | Nc1ncnc2c1ncn2[C@@H]1O[C@@H]2COP(O)(=S)O[C@@H]3C(O)[C@@H](COP(O)(=S)O[C@H]2[C@H]1O)O[C@H]3n1cnc2c(N)ncnc21 (stereo partly shown) [ML RR-S2 CDA] | – | – | – | – | – | – | induced IFNβ expression in the tumor, pancreas, and spleen above the PBS-treated group
